Measurements as given in patent US20010049128A1, “PROCESS FOR THE FERMENTATIVE PRODUCTION OF L-AMINO ACIDS” (priority 1998, published 2001).
Read-outs that look alike come from different tables or passages of the source.

Key:
[1] = test system: Brevibacterium flavum DSM5399; settings: Proline 0.1 g/l; 72 hours at 30° C., 300 rpm
Experimental: The solution of trace salts consisted of 1.0 g FeSO4.7H2O, 1.0 g MnSO4.H2O, 0.1 g ZnSO4.7H2O, 0.02 g CuSO4 and 0.002 g NiCl2.6H2O, which was made up to 100 ml with demineralised water and a few drops of a 1N HCl solution.
1 ml each of a 0.2 mg/l biotin and thiamine stock solution, which had been sterilised by filtration, were added to the culture medium. 10.0 g/l CaCO3 was sterilised together with the shaking flasks.
10 ml portions of cultivation medium were placed in 100 ml Erlenmeyer shaking flasks and inoculated with 100 μl of the withdrawn cell suspension. The cultivation took place over 72 hours at 30° C. and 300 rpm.

[2] = test system: Corynebacterium glutamicum DSM5715; settings: Proline 0.5 g/l; 72 hours at 33° C., 150 rpm; NaCl 5 g/l
Experimental: A culture medium containing 2.5 g/l NaCl, 10 g/l peptone and 10 g/l yeast extract was adjusted to pH 7.4 with sodium hydroxide and, after heat sterilisation, 40 ml of 50% glucose solution per liter was added thereto. 47 ml portions of the medium were inoculated with Corynebacterium glutamicum DSM5715 with a needle on an agar plate with brain-heart agar as nutrient medium incubated for 48 hours and were shaken at 150 rpm for 20 hours at 33° C. in an RC-1-TK incubator from the firm Infors AG (Bottmingen, Switzerland). The cells were then washed with sterile physiological saline. The cells were separated by centrifugation for 20 minutes at 4000 rpm in a Beckmann centrifuge J 6B.
For the main cultivation in shaking flasks, 40 g (NH4)2SO4, 0.5 g KH2PO4, 0.5 g K2HPO4, 0.25 g MgSO4.7H2O and 0.3 g L-leucine were weighed in a 1 l beaker and 750 ml distilled water was added thereto. […]
The cultivation took place over 72 hours at 33° C. and 150 rpm in an RC-1-TK incubator from the firm Infors AG (Bottmingen, Switzerland). Subsequent to this, the optical density (OD) (photometer LP2W from the firm Dr. Lange, Berlin, Germany) and the concentration of L-amino acid formed in the culture suspension were determined. Amino acids were analysed by ion-exchange chromatography and post-column reaction with ninhydrin detection, using an amino acid analyser from the firm Eppendorf BioTronik (Hamburg, Germany).

[3] = test system: Brevibacterium flavum DSM5399; settings: 72 hours at 30° C., 300 rpm
Experimental: A culture medium containing 100 g/l saccharose, 12 g/l (NH4)2SO4, 100 ml/l soya flour hydrolysate, 0.5 g/l K2HPO4, 0.5 g/l KH2PO4, 0.25 g/l MgSO4.7H2O, 5.0 g/l NaCl and 1 ml of a solution of trace salts was adjusted to pH 7.0 and autoclaved. The solution of trace salts consisted of 1.0 g FeSO4.7H2O, 1.0 g MnSO4.H2O, 0.1 g ZnSO4.7H2O, 0.02 g CuSO4 and 0.002 g NiCl2.6H2O, which was made up to 100 ml with demineralised water and a few drops of a 1N HCl solution.
1 ml each of a 0.2 mg/l biotin and thiamine stock solution, which had been sterilised by filtration, were added to the culture medium. 10.0 g/l CaCO3 was sterilised together with the shaking flasks. In the culture medium, the proline concentration resulting from the introduction of soya flour hydrolysate was 0.34 g/l. The specified concentration of proline, obtained from a proline stock solution, was added to the medium after having been sterilised by filtration.
An agar plate with brain-heart agar as nutrient medium, which had been incubated for 72 hours with DSM5399, was suspended in 10 ml of sterile physiological saline. 10 ml portions of cultivation medium were placed in 100 ml Erlenmeyer shaking flasks and inoculated with 100 μl of the withdrawn cell suspension. The cultivation took place over 72 hours at 30° C. and 300 rpm. Subsequent to this, as specified in Example 1, the OD was determined at a wavelength of 660 nm and the threonine concentration was measured.

[4] = test system: cells in media with inhibiting osmotic stress; settings: cited from earlier work
[5] = Proline 0.34 g/l (resulting from soya flour hydrolysate, none added)

Structure (SMILES)	L-isoleucine [1] [g/L]	OD 660 nm [1]	Lysine [2] [g/L]	OD 535 nm [2]	OD 660 nm [3, 5]	Threonine [3, 5] [g/L]	OD 660 nm ([3]; Proline 0.66 g/l)	Threonine ([3]; Proline 0.66 g/l) [g/L]	growth rate of the cells [4]	production of L-lysine [4]
O=C(O)[C@@H]1CCCN1 [Proline, L-proline]	0.36	52.0	29.4	30.5	51.2	0.63	52.6	1.29		
C[N+](C)(C)CC(=O)[O-] [glycine betaine]									stimulates the growth rate	increase in the production of L-lysine
